Laboratory results as given in PMC6978637 (Saudi Pharmaceutical Journal : SPJ, 2019).
Values joined by “and” are separate entries in the source; they are usually repeats but may differ in a detail not shown here. Identical values can stand only once. Like-named read-outs stand apart in the source and are kept apart here.

Columns and labels:
[1] = tested on: NIH-3T3 cells; assay: WST-1 cytotoxicity assay; assay type: cell-based, mouse; conditions: Mus musculus, NIH3T3, 48 h, read-out: NIH-3T3 Cells IC50
[2] = biological target: FGFR1 (Homo sapiens, UniProt P11362); assay: Z'-LYTE kinase enzyme inhibition assay, FGFR1; assay type: biochemical
[3] = tested on: FGFR1; assay: Z'-LYTE kinase enzyme inhibition assay, FGFR1; assay type: biochemical; conditions: for FGFR1-SI: selectivity index IC50/IC50, lowest IC50 of the compound = 1; for FGFR selectivity (in words): among FGFR1-4
[4] = biological target: FGFR4 (Homo sapiens, UniProt P22455); assay: biochemical; assay type: biochemical
[5] = tested on: FGFR3; assay: biochemical; assay type: biochemical; conditions: for FGFR selectivity (in words): among FGFR1-4
[6] = biological target: FGFR3 (Homo sapiens, UniProt P22607); assay: biochemical; assay type: biochemical
[7] = selectivity index IC50/IC50, lowest IC50 of the compound = 1

Sequence of FGFR3 (Homo sapiens, UniProt P22607) (P22607 23-806): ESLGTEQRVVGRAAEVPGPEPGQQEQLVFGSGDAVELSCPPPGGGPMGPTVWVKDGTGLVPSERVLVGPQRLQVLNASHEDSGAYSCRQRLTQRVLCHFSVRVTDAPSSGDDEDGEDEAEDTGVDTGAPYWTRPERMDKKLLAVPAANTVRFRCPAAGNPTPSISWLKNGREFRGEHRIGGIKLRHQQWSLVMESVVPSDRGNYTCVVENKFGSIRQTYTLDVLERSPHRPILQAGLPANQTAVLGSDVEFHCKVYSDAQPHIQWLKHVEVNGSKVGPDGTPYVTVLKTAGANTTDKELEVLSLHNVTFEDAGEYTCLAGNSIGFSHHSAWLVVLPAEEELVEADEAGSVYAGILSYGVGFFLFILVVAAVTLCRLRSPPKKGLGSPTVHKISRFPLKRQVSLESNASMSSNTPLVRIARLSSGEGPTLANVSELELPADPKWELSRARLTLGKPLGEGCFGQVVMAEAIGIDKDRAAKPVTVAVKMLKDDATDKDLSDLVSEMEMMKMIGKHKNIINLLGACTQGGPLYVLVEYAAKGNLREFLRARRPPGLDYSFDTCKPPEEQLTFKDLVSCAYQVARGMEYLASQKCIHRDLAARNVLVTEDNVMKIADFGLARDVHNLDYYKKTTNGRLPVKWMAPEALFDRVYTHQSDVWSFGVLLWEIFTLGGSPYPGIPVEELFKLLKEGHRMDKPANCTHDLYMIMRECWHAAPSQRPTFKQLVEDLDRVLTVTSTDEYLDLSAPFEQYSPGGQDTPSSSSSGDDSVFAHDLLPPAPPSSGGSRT
Sequence of FGFR1 (Homo sapiens, UniProt P11362) (P11362 22-822): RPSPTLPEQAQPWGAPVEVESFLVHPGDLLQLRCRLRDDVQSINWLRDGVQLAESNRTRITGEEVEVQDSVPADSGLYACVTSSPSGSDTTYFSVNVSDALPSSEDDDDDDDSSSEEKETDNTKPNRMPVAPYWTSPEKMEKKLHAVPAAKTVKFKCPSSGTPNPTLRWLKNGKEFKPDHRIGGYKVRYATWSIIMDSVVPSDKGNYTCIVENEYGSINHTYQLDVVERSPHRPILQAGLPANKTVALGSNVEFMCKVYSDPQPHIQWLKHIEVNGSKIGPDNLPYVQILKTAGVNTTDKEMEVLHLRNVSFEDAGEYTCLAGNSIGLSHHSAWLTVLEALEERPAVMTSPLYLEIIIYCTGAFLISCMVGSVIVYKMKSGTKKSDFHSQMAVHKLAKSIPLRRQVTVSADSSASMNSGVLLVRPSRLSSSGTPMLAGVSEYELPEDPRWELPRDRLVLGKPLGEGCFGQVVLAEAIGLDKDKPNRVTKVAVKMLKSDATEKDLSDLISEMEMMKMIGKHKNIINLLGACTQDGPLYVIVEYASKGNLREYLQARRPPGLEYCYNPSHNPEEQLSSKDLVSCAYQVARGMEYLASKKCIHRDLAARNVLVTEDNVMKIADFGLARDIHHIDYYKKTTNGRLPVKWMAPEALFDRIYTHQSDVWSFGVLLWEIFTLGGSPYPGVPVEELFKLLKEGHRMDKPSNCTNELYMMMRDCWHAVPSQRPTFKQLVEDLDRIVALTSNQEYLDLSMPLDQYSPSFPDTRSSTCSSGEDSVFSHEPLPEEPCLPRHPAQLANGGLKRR
Sequence of FGFR4 (P22455 22-802): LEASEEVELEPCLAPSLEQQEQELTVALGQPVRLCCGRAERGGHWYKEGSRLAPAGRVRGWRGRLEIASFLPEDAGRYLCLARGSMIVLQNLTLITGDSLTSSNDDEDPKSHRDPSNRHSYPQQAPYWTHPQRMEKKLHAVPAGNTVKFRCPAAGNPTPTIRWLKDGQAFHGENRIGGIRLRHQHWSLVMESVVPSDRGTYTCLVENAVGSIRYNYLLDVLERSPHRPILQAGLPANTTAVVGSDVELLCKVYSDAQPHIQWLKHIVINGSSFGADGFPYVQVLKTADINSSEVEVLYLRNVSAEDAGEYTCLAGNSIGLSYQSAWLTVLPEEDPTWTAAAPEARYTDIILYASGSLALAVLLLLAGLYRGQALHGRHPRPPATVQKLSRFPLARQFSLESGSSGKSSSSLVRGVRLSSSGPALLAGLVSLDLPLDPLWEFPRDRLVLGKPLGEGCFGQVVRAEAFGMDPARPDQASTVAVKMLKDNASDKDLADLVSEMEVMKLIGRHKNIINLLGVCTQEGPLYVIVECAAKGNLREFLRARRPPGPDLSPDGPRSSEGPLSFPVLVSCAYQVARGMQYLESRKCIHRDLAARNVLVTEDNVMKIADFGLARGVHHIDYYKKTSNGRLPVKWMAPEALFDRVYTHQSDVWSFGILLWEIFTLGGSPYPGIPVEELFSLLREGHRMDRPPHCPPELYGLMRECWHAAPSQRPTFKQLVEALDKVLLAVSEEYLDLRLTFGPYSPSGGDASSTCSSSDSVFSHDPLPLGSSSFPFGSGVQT

Row | SMILES | IC50 ([2]; FGFR1-IC50) [nM] | FGFR1-SI [3] | FGFR4-SI [4] | IC50 [4] [nM] | IC50 ([6]; FGFR3-IC50) | FGFR selectivity (in words) [3] | IC50 ([2]; read-out: FGFR1-IC50) [nM] | IC50 ([4]; read-out: FGFR4-IC50) [nM] | IC50 ([6]; read-out: FGFR3-IC50) [nM] | IC50 [1] [nM] | FGFR selectivity (in words) [5] | FGFR3-SI [5, 7] | FGFR3-SI [5]
1 | O=C1Nc2ccc(-c3ccc(C(=O)N4CCOCC4)cc3)cc2/C1=C\c1ccc(N2CCOCC2)cc1 [Compound A3, (E)-5-[4-(morpholin-4-carbonyl)phenyl]-3-(4-morpholinobenzylidene)indolin-2-one] | 686 ± 27.7 | 13.054 | 69.878 | 3670 ± 290 | 52.5 ± 4.7 nM | – | – | – | – | 3260 ± 121 | for FGFR3 | 1 | –
2 | O=C1Nc2ccc(-c3ccc(C(=O)N4CCCC4)cc3)cc2/C1=C\c1ccc(N2CCOCC2)cc1 [Compound A6, (E)-3-(4-morpholinobenzylidene)-5-[4-(pyrrolidine-1-carbonyl)phenyl]indolin-2-one] | 49 ± 0.688 | 1 | 16.785 | 823 ± 108 | 1090 ± 47.3 nM | selectivity to FGFR1 | – | – | – | 818 ± 241 | – | – | 22.297
3 | CN1CCN(C(=O)c2ccc(-c3ccc4c(c3)/C(=C\c3ccc(N5CCC(O)CC5)cc3)C(=O)N4)cc2)CC1 [Compound A11, (E)-3-[4-(4-hydroxypiperidin-1-yl)benzylidene]-5-[4-(4-methylpiperazine-1-carbonyl)phenyl]indolin-2-one] | 155 ± 6.18 | 1.464 | 191.383 | 20200 ± 259 | 106 ± 2.8 nM | selectivity to FGFR1 and FGFR3 | – | – | – | 87800 ± 4290 | – | 1 | –
4 | CN1CCN(c2ccc(/C=C3/C(=O)Nc4ccc(-c5ccc(C(=O)N6CCOCC6)cc5)cc43)cc2)CC1 [Compound A15, (E)-3-[4-(4-methylpiperazin-1-yl)benzylidene]-5-[4-(morpholine-4-carbonyl)phenyl]indolin-2-one] | 38.7 ± 0.504 | 1 | 382.588 | 14800 ± 449 | 38.8 ± 1.35 nM | selectivity to FGFR1 and FGFR3 | – | – | – | 9500 ± 260 | – | 1.003 | –
5 | CN1CCN(c2ccc(/C=C3/C(=O)Nc4ccc(-c5ccc(C(=O)N6CCCCC6)cc5)cc43)cc2)CC1 [Compound A16, (E)-3-[4-(4-methylpiperazin-1-yl)benzylidene]-5-[4-(piperidine-1-carbonyl)phenyl]indolin-2-one] | 256 ± 28.1 | 17.919 | 1054.660 | 15050 ± 64.1 | 14.3 nM and 14.2 nM | – | – | – | – | 626 ± 140 | for FGFR3 | 1 | –
6 | CN1CCN(C(=O)c2ccc(-c3ccc4c(c3)/C(=C\c3ccc(N5CCN(C)CC5)cc3)C(=O)N4)cc2)CC1 [Compound A17, (E)-3-[4-(4-methylpiperazin-1-yl)benzylidene]-5-[4-(4-methylpiperazine-1-carbonyl)phenyl]indolin-2-one] | 819.8 ± 3.63 | 61.547 | 542.643 | 7230 ± 288 | 13.3 ± 2.93 nM | – | – | – | – | 4700 ± 105 | for FGFR3 | 1 | –
7 | O=CN1CCN(c2ccc(/C=C3/C(=O)Nc4ccc(-c5ccc(-c6ccc(O)cc6)cc5)cc43)cc2)CC1 [Compound A26, (E)-4-{4-{[5-(4'-hydroxy-[1,1'-biphenyl]-4-yl)-2-oxoindolin-3-ylidene]methyl}phenyl}piperazine-1-carbaldehyde] | – | 1 | 24.028 | – | – | – | 422 ± 40.3 | 10100 ± 322 | 481 ± 24.1 | 2500 ± 268 | – | – | 1.14
8 | O=CN1CCN(c2ccc(/C=C3/C(=O)Nc4ccc(-c5ccc(C(=O)N6CCCCC6)cc5)cc43)cc2)CC1 [Compound A28, (E)-4-{4-{ {2-oxo-5-[4-(piperidine-1-carbonyl)phenyl]indolin-3-ylidene}methyl}phenyl}piperazine-1-carbaldehyde] | 77.3 ± 3.14 | 2.299 | 209.223 | 7030 ± 244 | 33.6 ± 0.574 nM | – | – | – | – | 839 ± 232 | – | 1 | –

Second part, led by results:

Row | IC50 ([2]; FGFR1-IC50) [nM] | FGFR1-SI [3] | FGFR4-SI [4] | IC50 [4] [nM] | IC50 ([6]; FGFR3-IC50) | FGFR selectivity (in words) [3] | IC50 ([2]; read-out: FGFR1-IC50) [nM] | IC50 ([4]; read-out: FGFR4-IC50) [nM] | IC50 ([6]; read-out: FGFR3-IC50) [nM] | SMILES | IC50 [1] [nM] | FGFR selectivity (in words) [5] | FGFR3-SI [5, 7] | FGFR3-SI [5]
9 | 107 ± 3.84 | 1 | 141.176 | 15100 ± 313 | 195 ± 5.61 nM | selectivity to FGFR1 and FGFR3 | – | – | – | O=C1Nc2ccc(-c3ccc(C(=O)N4CCCCC4)cc3)cc2/C1=C\c1ccc(N2CCOCC2)cc1 [Compound A4, (E)-3-(4-morpholinobenzylidene)-5-[4-(piperidine-1-carbonyl)phenyl]indolin-2-one] | 400 ± 100 | – | – | 1.819
10 | 64.4 ± 1.23 | 3.369 | 927.339 | 17700 ± 329 | 19.1 ± 3.22 nM | – | – | – | – | O=C1Nc2ccc(-c3ccc(C(=O)N4CCOCC4)cc3)cc2/C1=C\c1ccc(N2CCC(O)CC2)cc1 [Compound A9, (E)-3-[4-(4-hydroxypiperidin-1-yl)benzylidene]-5-[4-(morpholine-4-carbonyl)phenyl]indolin-2-one] | 1140 ± 220 | for FGFR3 | 1 | –
11 | 344.7 ± 3.41 | 20.006 | 1343.587 | 23200 ± 271 | 17.2 ± 0.419 nM | – | – | – | – | O=C1Nc2ccc(-c3ccc(C(=O)N4CCCCC4)cc3)cc2/C1=C\c1ccc(N2CCC(O)CC2)cc1 [Compound A10, (E)-3-[4-(4-hydroxypiperidin-1-yl)benzylidene]-5-[4-(piperidine-1-carbonyl)phenyl]indolin-2-one] | 983 ± 158 | for FGFR3 | 1 | –
12 | 646 ± 10.9 | 28.719 | 217.749 | 4890 ± 402 | 22.5 ± 0.737 nM | – | – | – | – | O=C1Nc2ccc(-c3ccc(C(=O)N4CCCC4)cc3)cc2/C1=C\c1ccc(N2CCC(O)CC2)cc1 [Compound A12, (E)-3-[4-(4-hydroxypiperidin-1-yl)benzylidene]-5-[4-(pyrrolidine-1-carbonyl)phenyl]indolin-2-one] | 4960 ± 187 | for FGFR3 | 1 | –
13 | 49.2 ± 2.52 | 1 | 295.505 | 14500 ± 211 | 156 ± 31.3 nM | selectivity to FGFR1 | – | – | – | CN1CCN(c2ccc(/C=C3/C(=O)Nc4ccc(-c5ccc(C(=O)N6CCCC6)cc5)cc43)cc2)CC1 [Compound A18, (E)-3-[4-(4-methylpiperazin-1-yl)benzylidene]-5-[4-(pyrrolidine-1-carbonyl)phenyl]indolin-2-one] | 2540 ± 146 | – | – | 3.167
14 | 3976 ± 0.354 | 3.658 | 5.641 | 6130 ± 208 | 1090 ± 477 nM | – | – | – | – | O=CN1CCN(c2ccc(/C=C3/C(=O)Nc4ccc(-c5ccc6cc(O)ccc6c5)cc43)cc2)CC1 [Compound A25, (E)-4-{4-{[5-(6-hydroxynaphthalen-2-yl)-2-oxoindolin-3-ylidene]methyl}phenyl}piperazine-1-carbaldehyde] | 24500 ± 306 | – | 1 | –
15 | 9130 ± 1760 | 48.818 | 32.626 | 6100 ± 347 | 187 ± 4.12 nM | – | – | – | – | CN1CCN(C(=O)c2ccc(-c3ccc4c(c3)/C(=C\c3ccc(N5CCN(C=O)CC5)cc3)C(=O)N4)cc2)CC1 [Compound A29, (E)-4-{4-{ {5-[4-(4-methylpiperazine-1-carbonyl)phenyl]-2-oxoindolin-3-ylidene}methyl}phenyl}piperazine-1-carbaldehyde] | 10100 ± 251 | – | 1 | –
16 | 67.2 ± 2.92 | 1 | 94.136 | 6320 ± 322 | 193 ± 39.3 nM | – | – | – | – | O=CN1CCN(c2ccc(/C=C3/C(=O)Nc4ccc(-c5ccc(C(=O)N6CCCC6)cc5)cc43)cc2)CC1 [Compound A30, (E)-4-{4-{ {2-oxo-5-[4-(pyrrolidine-1-carbonyl)phenyl]indolin-3-ylidene}methyl}phenyl}piperazine-1-carbaldehyde] | 1590 ± 224 | – | – | 2.880
